Assay results published in the supplement of paper PMC10331698.
± gives the standard deviation of the averaged measurements.

Columns and labels:
Assay in all cases: level (log10 ratio to DMSO vehicle control); higher = higher biomarker level / cell amount than vehicle control
Conditions in all cases: in DMSO
[1] = compound: FC(F)(F)C(F)(F)C(F)(F)CC1CO1 [1H,1H-Heptafluorobutyl epoxide]
Procedure: (§1)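 BioMAP Diversity Plus panel of 12 human primary cell co-culture systems (3C, 4H, LPS, SAg, BT, BF4T, BE3C, CASM3C, HDF3CGF, KF3CT, MyoF, Mphg). Compounds were added 1 h before stimulation and left for 24 h (MyoF 48 h; BT 72 h for soluble read-outs or 6 d for IgG). Biomarkers were read by ELISA, cytotoxicity by SRB, PBMC viability and proliferation by Alamar Blue. Each well value was divided by the mean of 8 DMSO control wells on the same plate and log10 transformed; duplicate blinded samples were tested at 4 concentrations.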

Heptafluorobutyl iodide = compound: FC(F)(F)C(F)(F)C(F)(F)CI [Heptafluorobutyl iodide]
Procedure: as §1

Octafluoroadipamide = compound: NC(=O)C(F)(F)C(F)(F)C(F)(F)C(F)(F)C(N)=O [Octafluoroadipamide]
Procedure: as §1

[2] = compound: O=C(O)C(F)(F)C(F)(F)C(F)(F)C(F)(F)C(F)(F)C(F)(F)C(F)(F)C(F)(F)C(F)(F)C(F)F [11-H-Perfluoroundecanoic acid]
Procedure: as §1

[3] = compound: O=S(=O)(F)C(F)(F)C(F)(F)C(F)(F)C(F)(F)C(F)(F)C(F)(F)C(F)(F)C(F)(F)F [Perfluorooctanesulfonyl fluoride]
Procedure: as §1

## MyoF:Collagen I
[1]; 6700 nM
  level (log10): 0.013 ± 0.018
[1]; 20000 nM
  level (log10): -0.0025 ± 0.00071
[1]; 60000 nM
  level (log10): -0.0105 ± 0.012
Heptafluorobutyl iodide; 6700 nM
  level (log10): -0.0015 ± 0.0035
Heptafluorobutyl iodide; 20000 nM
  level (log10): -0.0195 ± 0.005
Heptafluorobutyl iodide; 60000 nM
  level (log10): 0.013 ± 0.018
Octafluoroadipamide; 6700 nM
  level (log10): -0.0015 ± 0.015
Octafluoroadipamide; 20000 nM
  level (log10): 0.009 ± 0.0071
Octafluoroadipamide; 60000 nM
  level (log10): 0.0135 ± 0.0021
[2]; 6700 nM
  level (log10): -0.0625 ± 0.0092
[2]; 20000 nM
  level (log10): -0.312 ± 0.023
[3]; 6700 nM
  level (log10): 0.0005 ± 0.0035
[3]; 20000 nM
  level (log10): -0.005 ± 0.0099
[3]; 60000 nM
  level (log10): 0.003 ± 0.016

## CASM3C:HLA-DR
[1]; 6700 nM
  level (log10): -0.014 ± 0.0099
[1]; 20000 nM
  level (log10): -0.017 ± 0.0028
[1]; 60000 nM
  level (log10): -0.0165 ± 0.016
Heptafluorobutyl iodide; 6700 nM
  level (log10): -0.016 ± 0.024
Heptafluorobutyl iodide; 20000 nM
  level (log10): -0.022 ± 0.0014
Heptafluorobutyl iodide; 60000 nM
  level (log10): -0.008 ± 0.0028
Octafluoroadipamide; 6700 nM
  level (log10): -0.0105 ± 0.022
Octafluoroadipamide; 20000 nM
  level (log10): -0.019 ± 0.0057
Octafluoroadipamide; 60000 nM
  level (log10): 0.01 ± 0.018
[2]; 6700 nM
  level (log10): -0.0085 ± 0.0021
[2]; 20000 nM
  level (log10): -0.02 ± 0.0028
[3]; 6700 nM
  level (log10): 0.0065 ± 0.022
[3]; 20000 nM
  level (log10): -0.0035 ± 0.0092
[3]; 60000 nM
  level (log10): 0.008 ± 0.0057

## lMphg:sIL-10
[1]; 6700 nM
  level (log10): -0.0515 ± 0.022
[1]; 20000 nM
  level (log10): -0.047 ± 0.031
[1]; 60000 nM
  level (log10): -0.01 ± 0.011
Heptafluorobutyl iodide; 6700 nM
  level (log10): -0.0135 ± 0.036
Heptafluorobutyl iodide; 20000 nM
  level (log10): 0.0085 ± 0.013
Heptafluorobutyl iodide; 60000 nM
  level (log10): -0.03 ± 0.078
Octafluoroadipamide; 6700 nM
  level (log10): -0.0295 ± 0.021
Octafluoroadipamide; 20000 nM
  level (log10): -0.012 ± 0.11
Octafluoroadipamide; 60000 nM
  level (log10): -0.1 ± 0.017
[2]; 6700 nM
  level (log10): -0.0875 ± 0.026
[2]; 20000 nM
  level (log10): -0.0855 ± 0.0064
[3]; 6700 nM
  level (log10): -0.0605 ± 0.096
[3]; 20000 nM
  level (log10): -0.0755 ± 0.11
[3]; 60000 nM
  level (log10): 0.0005 ± 0.063

## 3C:CD141/Thrombomodulin
[1]; 6700 nM
  level (log10): 0.0125 ± 0.053
[1]; 20000 nM
  level (log10): -0.034 ± 0.04
[1]; 60000 nM
  level (log10): -0.0575 ± 0.08
Heptafluorobutyl iodide; 6700 nM
  level (log10): -0.0335 ± 0.04
Heptafluorobutyl iodide; 20000 nM
  level (log10): -0.0305 ± 0.005
Heptafluorobutyl iodide; 60000 nM
  level (log10): -0.025 ± 0.014
Octafluoroadipamide; 6700 nM
  level (log10): 0.0505 ± 0.044
Octafluoroadipamide; 20000 nM
  level (log10): 0.048 ± 0.02
Octafluoroadipamide; 60000 nM
  level (log10): 0.064 ± 0.0099
[2]; 6700 nM
  level (log10): -0.0065 ± 0.005
[2]; 20000 nM
  level (log10): -0.0255 ± 0.033
[3]; 6700 nM
  level (log10): -0.021 ± 0.0099
[3]; 20000 nM
  level (log10): -0.0235 ± 0.026
[3]; 60000 nM
  level (log10): -0.0245 ± 0.028

## MyoF:bFGF
[1]; 6700 nM
  level (log10): -0.0035 ± 0.0035
[1]; 20000 nM
  level (log10): -0.002 ± 0.0028
[1]; 60000 nM
  level (log10): -0.0025 ± 0.015
Heptafluorobutyl iodide; 6700 nM
  level (log10): 0.0115 ± 0.019
Heptafluorobutyl iodide; 20000 nM
  level (log10): 0.01 ± 0.0028
Heptafluorobutyl iodide; 60000 nM
  level (log10): 0.0115 ± 0.005
Octafluoroadipamide; 6700 nM
  level (log10): -0.0115 ± 0.015
Octafluoroadipamide; 20000 nM
  level (log10): -0.014 ± 0.011
Octafluoroadipamide; 60000 nM
  level (log10): 0.0135 ± 0.0078
[2]; 6700 nM
  level (log10): 0.006 ± 0.0099
[2]; 20000 nM
  level (log10): 0.005
[3]; 6700 nM
  level (log10): 0 ± 0.0014
[3]; 20000 nM
  level (log10): -0.0085 ± 0.00071
[3]; 60000 nM
  level (log10): 0.0095 ± 0.018

## KF3CT:SRB
[1]; 6700 nM
  level (log10): -0.001 ± 0.0085
[1]; 20000 nM
  level (log10): 0.001 ± 0.0028
[1]; 60000 nM
  level (log10): -0.001 ± 0.0057
Heptafluorobutyl iodide; 6700 nM
  level (log10): -0.002 ± 0.0028
Heptafluorobutyl iodide; 20000 nM
  level (log10): 0 ± 0.0042
Heptafluorobutyl iodide; 60000 nM
  level (log10): 0.001 ± 0.016
Octafluoroadipamide; 6700 nM
  level (log10): 0.0015 ± 0.00071
Octafluoroadipamide; 20000 nM
  level (log10): -0.004 ± 0.011
Octafluoroadipamide; 60000 nM
  level (log10): 0.0125 ± 0.005
[2]; 6700 nM
  level (log10): -0.01 ± 0.017
[2]; 20000 nM
  level (log10): -0.012 ± 0.0014
[3]; 6700 nM
  level (log10): 0.0025 ± 0.0021
[3]; 20000 nM
  level (log10): 0.0015 ± 0.005
[3]; 60000 nM
  level (log10): 0.0045 ± 0.00071

## LPS:CD106/VCAM-1
[1]; 6700 nM
  level (log10): 0.01 ± 0.017
[1]; 20000 nM
  level (log10): 0.0125 ± 0.0064
[1]; 60000 nM
  level (log10): 0.002 ± 0.0071
Heptafluorobutyl iodide; 6700 nM
  level (log10): -0.0355 ± 0.0092
Heptafluorobutyl iodide; 20000 nM
  level (log10): -0.001 ± 0.018
Heptafluorobutyl iodide; 60000 nM
  level (log10): -0.0485 ± 0.054
Octafluoroadipamide; 6700 nM
  level (log10): -0.022 ± 0.047
Octafluoroadipamide; 20000 nM
  level (log10): -0.0065 ± 0.0092
Octafluoroadipamide; 60000 nM
  level (log10): 0.008 ± 0.021
[2]; 6700 nM
  level (log10): 0.0025 ± 0.019
[2]; 20000 nM
  level (log10): -0.002 ± 0.02
[3]; 6700 nM
  level (log10): 0.0025 ± 0.011
[3]; 20000 nM
  level (log10): -0.0125 ± 0.00071
[3]; 60000 nM
  level (log10): 0.007 ± 0.0085

## HDF3CGF:EGFR
[1]; 6700 nM
  level (log10): -0.004 ± 0.014
[1]; 20000 nM
  level (log10): -0.004 ± 0.0028
[1]; 60000 nM
  level (log10): 0.023 ± 0.047
Heptafluorobutyl iodide; 6700 nM
  level (log10): -0.0495 ± 0.064
Heptafluorobutyl iodide; 20000 nM
  level (log10): -0.054 ± 0.072
Heptafluorobutyl iodide; 60000 nM
  level (log10): -0.0055 ± 0.04
Octafluoroadipamide; 6700 nM
  level (log10): -0.012 ± 0.082
Octafluoroadipamide; 20000 nM
  level (log10): 0.0015 ± 0.054
Octafluoroadipamide; 60000 nM
  level (log10): 0.0145 ± 0.087
[2]; 6700 nM
  level (log10): -0.022 ± 0.011
[2]; 20000 nM
  level (log10): -0.124 ± 0.018
[3]; 6700 nM
  level (log10): -0.0255 ± 0.067
[3]; 20000 nM
  level (log10): -0.089 ± 0.17
[3]; 60000 nM
  level (log10): -0.0715 ± 0.19

## 3C:CD54/ICAM-1
[1]; 6700 nM
  level (log10): -0.02 ± 0.0071
[1]; 20000 nM
  level (log10): -0.0135 ± 0.005
[1]; 60000 nM
  level (log10): -0.003 ± 0.0057
Heptafluorobutyl iodide; 6700 nM
  level (log10): -0.0075 ± 0.015
Heptafluorobutyl iodide; 20000 nM
  level (log10): -0.0035 ± 0.0092
Heptafluorobutyl iodide; 60000 nM
  level (log10): -0.0055 ± 0.005
Octafluoroadipamide; 6700 nM
  level (log10): -0.0125 ± 0.0021
Octafluoroadipamide; 20000 nM
  level (log10): -0.019 ± 0.0071
Octafluoroadipamide; 60000 nM
  level (log10): -0.006 ± 0.0085
[2]; 6700 nM
  level (log10): -0.012 ± 0.023
[2]; 20000 nM
  level (log10): -0.019 ± 0.0014
[3]; 6700 nM
  level (log10): -0.0025 ± 0.011
[3]; 20000 nM
  level (log10): -0.007 ± 0.0042
[3]; 60000 nM
  level (log10): 0.005 ± 0.0028

## HDF3CGF:CXCL9/MIG
[1]; 6700 nM
  level (log10): -0.03 ± 0.031
[1]; 20000 nM
  level (log10): -0.03 ± 0.068
[1]; 60000 nM
  level (log10): -0.062 ± 0.05
Heptafluorobutyl iodide; 6700 nM
  level (log10): -0.012 ± 0.0071
Heptafluorobutyl iodide; 20000 nM
  level (log10): -0.0305 ± 0.016
Heptafluorobutyl iodide; 60000 nM
  level (log10): -0.022 ± 0.011
Octafluoroadipamide; 6700 nM
  level (log10): -0.006 ± 0.0014
Octafluoroadipamide; 20000 nM
  level (log10): -0.0055 ± 0.015
Octafluoroadipamide; 60000 nM
  level (log10): 0.016 ± 0.025
[2]; 6700 nM
  level (log10): -0.089 ± 0.0099
[2]; 20000 nM
  level (log10): -0.222 ± 0.014
[3]; 6700 nM
  level (log10): -0.01 ± 0.0028
[3]; 20000 nM
  level (log10): 0.0125 ± 0.0092
[3]; 60000 nM
  level (log10): -0.02 ± 0.017

## 3C:HLA-DR
[1]; 6700 nM
  level (log10): 0.017
[1]; 20000 nM
  level (log10): 0.002
[1]; 60000 nM
  level (log10): 0.011 ± 0.0042
Heptafluorobutyl iodide; 6700 nM
  level (log10): -0.0255 ± 0.013
Heptafluorobutyl iodide; 20000 nM
  level (log10): -0.0125 ± 0.016
Heptafluorobutyl iodide; 60000 nM
  level (log10): -0.0045 ± 0.013
Octafluoroadipamide; 6700 nM
  level (log10): -0.0085 ± 0.023
Octafluoroadipamide; 20000 nM
  level (log10): 0.0055 ± 0.0021
Octafluoroadipamide; 60000 nM
  level (log10): 0.024 ± 0.014
[2]; 6700 nM
  level (log10): 0.0055 ± 0.039
[2]; 20000 nM
  level (log10): -0.001 ± 0.062
[3]; 6700 nM
  level (log10): -0.0045 ± 0.00071
[3]; 20000 nM
  level (log10): -0.004 ± 0.0028
[3]; 60000 nM
  level (log10): -0.003 ± 0.011
